Results reported in patent US20190177279A1, “CARBOXYLIC ACID AROMATIC 1,2-CYCLOPROPYLAMIDES” (Bayer Pharma Aktiengesellschaft, priority 2017, published 2019).

Target: T1, native human B1 receptors (Homo sapiens, UniProt P46663)
T1 construct: which express native human B1 receptors after induction with human IL-1; Coriell Institute; host or cells: IMR-90 human foetal lung fibroblasts, induced with human IL-1
T1 sequence (P46663 1-353): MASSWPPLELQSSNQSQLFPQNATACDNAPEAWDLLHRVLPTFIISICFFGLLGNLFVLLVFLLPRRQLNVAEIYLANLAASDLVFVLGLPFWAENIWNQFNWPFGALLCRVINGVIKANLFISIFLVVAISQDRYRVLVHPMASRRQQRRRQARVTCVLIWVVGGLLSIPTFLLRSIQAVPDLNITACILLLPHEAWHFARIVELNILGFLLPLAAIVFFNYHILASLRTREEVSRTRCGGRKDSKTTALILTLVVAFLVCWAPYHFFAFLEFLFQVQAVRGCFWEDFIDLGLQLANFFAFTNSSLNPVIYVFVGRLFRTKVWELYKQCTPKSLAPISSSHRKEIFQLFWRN
Assay: Calcium flux assay (FLIPR) with IMR-90 human foetal lung fibroblasts after IL-1 induction
Format: cell-based
Settings: IMR-90 fibroblasts induced with human IL-1; 0.1% BSA in assay buffer; agonist Lys-(Des-Arg)-Bradykinin at EC90; read-out: hB1 IC50 IMR90
Procedure: Calcium Flux Assay (FLIPR) with Human Fibroblasts for Bradykinin B1 Receptor Antagonist (hB1 IMR-90 IC50)
The Calcium flux Assay was carried out utilising IMR-90 human foetal lung fibroblasts (American Type Culture Collection, Rockville, Md.; and Coriell Institute, Camden, N.J.), which express native human B1 receptors after induction with human IL-1[…].
The fibroblasts were cultured in complete growth media comprised of Dulbecco's modified Eagle's medium (DMEM; Sigma) containing 10% foetal bovine serum, 4 mM L-glutamine, and 1% nonessential amino acids. The cells were maintained in a humidified atmosphere with 5% CO2 at 37° C. and were sub-cultured at a ratio of 1:3, every other day.
For the assay, IMR-90 fibroblasts were harvested using TrypLE Express (GIBCO/Invitrogen) and seeded into 384-well plates (Corning Cellbinding Surface, Cat. 3683) at a density of 15000 cells/well. The following day, cells were treated with 0.35 ng/mL human IL-1[…] in 10% FBS/MEM for 3 h to up-regulate B1 receptors. Induced cells were loaded with fluorescent calcium indicator by incubation with 2.5 μM Fluo-4/AM (Invitrogen) at 37° C., 5% CO2 for 2 h in the presence of 2.5 mM probenecid in 1% FBS/MEM. Extracellular dye was removed by washing with assay buffer (2.5 mM probenecid and 0.1% BSA in 20 mM HEPES/HBSS without bicarbonate or phenol red, pH 7.5). Example compounds were assayed at 8 concentrations in triplicate. After addition of example compounds to the cell plate and incubation for 30 min at 28° C., the addition of B1 agonist Lys-(Des-Arg)-Bradykinin (Bachem, Brackley) at a final concentration of EC90 was carried out on the FLIPR instrument while continuously monitoring Ca^2+-dependent fluorescence at 538 nm. A peptide antagonist Lys-(Des-Arg-Leu)-Bradykinin (Bachem, Brackley) at 20 μM was used to determine the full inhibition as control. IC50 values were determined by the same way described for the FLIPR assay with recombinant cells.

- IC50: 66 nM
Structure (SMILES): O=C(O)c1cc(NC(=O)C2CC2c2ccc(Cl)cc2)cc(F)c1-c1cnn(C2CCC2)c1 (racemic) [Example 2, 5-({[2-(4-chlorophenyl)cyclopropyl]carbonyl}amino)-2-(1-cyclobutyl-1H-pyrazol-4-yl)-3-fluorobenzoic acid]
